One may read the melting point as the temperature, or range, at which the solid turns liquid.

Each structure is given as a SMILES string. Read-outs that look alike come from different tables or passages of the source.

This note sets out measurements from patent US8470839B2, “N1-acyl-5-fluoropyrimidinone derivatives” (Dow Agrosciences, LLC., priority 2009, dated 2013).

Data set [1] relates to Mycosphaerella graminicola; Anamorph: Septoria tritici; Bayer Code SEPTTR. The data set is described as follows: Evaluation of fungicidal activity: leaf blotch of wheat, greenhouse wheat plants inoculated with Septoria tritici. Type of data set: in vivo. The following applies: Zymoseptoria tritici. The procedure: Evaluation of Fungicidal Activity: Leaf Blotch of Wheat (Mycosphaerella graminicola; Anamorph: Septoria tritici; Bayer Code […]) Wheat plants (variety Yuma) were grown from seed in a greenhouse in 50% mineral soil/50% soil-less Metro mix until the first leaf was fully emerged, with 7-10 seedlings per pot. These plants were inoculated with an aqueous spore suspension of Septoria tritici either prior to or after fungicide treatments. After inoculation the plants were kept in 100% relative humidity (one day in a dark dew chamber followed by two to three days in a lighted dew chamber) to permit spores to germinate and infect the leaf. The plants were then transferred to a greenhouse for disease to develop. The following table presents the activity of typical compounds of the present disclosure when evaluated in these experiments. The effectiveness of the test compounds in controlling disease was determined by assessing the severity of disease on treated plants, then converting the severity to percent control based on the level of disease on untreated, inoculated plants. In each case of Table II the rating scale is as follows: […]

[2] abbreviates: 24 h, One-Day Protectant (1DP), 100 ppm, wheat leaf blotch, percent control vs untreated inoculated plants, read-out: SEPTTR 100 PPM 1DP (% Disease Control rating).
The mark [3] stands for this setting: 72 h, Three-Day Curative (3DC), 100 ppm, wheat leaf blotch, percent control vs untreated inoculated plants, read-out: SEPTTR 100 PPM 3DC (% Disease Control rating).

Turning to `CN(C)/C=N/c1nc(=O)n(C(=O)c2cccc(Cl)c2)cc1F` [Compound 12], the melting point was 95.3 to 97.7 °C.
The compound `Cc1cccc(C)c1C(=O)n1cc(F)c(/N=C/N(C)C)nc1=O` [Compound 2, N′-[1-(2,6-dimethylbenzoyl)-5-fluoro-2-oxo-1,2-dihydro-pyrimidin-4-yl]-N,N-dimethylformamidine] showed a melting point of 120 to 150 °C. For the same compound, the pest or weed control at 100 ppm in data set [1] (setting [2]) is 76 to 100%. Moreover, the pest or weed control at 100 ppm in data set [1] (setting [3]) is 76 to 100%.
Take `Cc1ccc(C(=O)n2cc(F)c(N)nc2=O)cc1` [Compound 17]: the melting point lay in the range of 257 to 259.5 °C. In addition, in data set [1] (setting [2]), the pest or weed control at 100 ppm lay within 76 to 100%. Further, the pest or weed control at 100 ppm in data set [1] (setting [3]) was 76 to 100%.
In turn, `CN(C)/C=N/c1nc(=O)n(C(=O)c2ccc(F)c(F)c2)cc1F` [Compound 11] gave a melting point of 130 to 132 °C. Further, the pest or weed control at 100 ppm in data set [1] (setting [2]) fell in the range of 76 to 100%. Also, the pest or weed control at 100 ppm in data set [1] (setting [3]) fell in the range of 76 to 100%.
For the compound `Nc1nc(=O)n(C(=O)c2ccccc2F)cc1F` [Compound 16], the melting point lay within 228.3 to 229.7 °C. Also, in data set [1] (setting [2]), the pest or weed control at 100 ppm is 76 to 100%. Further, in data set [1] (setting [3]), the pest or weed control at 100 ppm lay within 76 to 100%.
Turning to `Nc1nc(=O)n(C(=O)c2ccccc2)cc1F` [Compound 14], the melting point is 213.2 to 215.3 °C. Further, in data set [1] (setting [2]), the pest or weed control at 100 ppm lay in the range of 76 to 100%. Besides, in data set [1] (setting [3]), the pest or weed control at 100 ppm lay in the range of 76 to 100%.
As to `CN(C)/C=N/c1nc(=O)n(C(=O)c2ccc(Cl)cc2Cl)cc1F` [Compound 4], the pest or weed control at 100 ppm in data set [1] (setting [2]) and in data set [1] (setting [3]) was 76 to 100% each time.
As for `CC(=O)Nc1nc(=O)n(C(=O)c2ccccc2)cc1F` [Compound 22], the melting point was 122.8 to 123.6 °C.
Turning to `COc1ccc(C(=O)n2cc(F)c(N)nc2=O)cc1` [Compound 15], the melting point is 257.9 to 259.6 °C. For the same compound, the pest or weed control at 100 ppm in data set [1] (setting [2]) was in the range of 76 to 100%. For the same compound, in data set [1] (setting [3]), the pest or weed control at 100 ppm was in the range of 76 to 100%.
With `COc1ccc(C(=O)n2cc(F)c(/N=C/N(C)C)nc2=O)cc1` [Compound 8], the melting point fell in the range of 126.2 to 128.3 °C. In addition, in data set [1] (setting [2]), the pest or weed control at 100 ppm was 76 to 100%. For the same compound, the pest or weed control at 100 ppm in data set [1] (setting [3]) fell in the range of 76 to 100%.
As for `COc1ccc(C(=O)n2cc(F)c(N)nc2=O)cc1OC` [Compound 18], the melting point was in the range of 170 to 172 °C. Besides, in data set [1] (setting [2]), the pest or weed control at 100 ppm lay within 76 to 100%. For the same compound, the pest or weed control at 100 ppm in data set [1] (setting [3]) was 76 to 100%.
For the compound `CN(C)/C=N/c1nc(=O)n(C(=O)c2c(Cl)cccc2Cl)cc1F` [Compound 3, N′-[1-(2,6-dichlorobenzoyl)-5-fluoro-2-oxo-1,2-dihydro-pyrimidin-4-yl]-N,N-dimethylformamidine], the melting point fell in the range of 185 to 187 °C. In addition, the pest or weed control at 100 ppm in data set [1] (24 h, read-out: SEPTTR 100 PPM 1DP (% Disease Control rating)) lay in the range of 51 to 75%. Moreover, the pest or weed control at 100 ppm in data set [1] (72 h, read-out: SEPTTR 100 PPM 3DC (% Disease Control rating)) lay within 76 to 100%.
As for `CC(C)=CC(=O)n1cc(F)c(/N=C/N(C)C)nc1=O` [Compound 6], the melting point lay in the range of 128 to 130 °C. In addition, the pest or weed control at 100 ppm in data set [1] (setting [2]) was 76 to 100%. In addition, the pest or weed control at 100 ppm in data set [1] (setting [3]) lay within 76 to 100%.
Consider `CC(=O)Nc1nc(=O)n(C(=O)c2cccc(Cl)c2)cc1F` [Compound 23], for which the melting point is 129.5 to 131 °C.
Turning to `CC(=O)n1cc(F)c(/N=C/N(C)C)nc1=O` [Compound 1, N′-(1-acetyl-5-fluoro-2-oxo-1,2-dihydropyrimidin-4-yl)-N,N-dimethylformamidine], the melting point is 125 to 130 °C (dec.). Besides, the pest or weed control at 100 ppm in data set [1] (setting [2]) was in the range of 76 to 100%. In data set [1] (setting [3]), the pest or weed control at 100 ppm fell in the range of 76 to 100%.
For `Cc1ccc(C(=O)n2cc(F)c(/N=C/N(C)C)nc2=O)c(C)c1` [Compound 5], the pest or weed control at 100 ppm in data set [1] (setting [2]) and in data set [1] (setting [3]) was 76 to 100% in each case.
In the case of `CN(C)/C=N/c1nc(=O)n(C(=O)c2ccccc2)cc1F` [Compound 7], the melting point is 137.3 to 139 °C. Further, the pest or weed control at 100 ppm in data set [1] (setting [2]) lay in the range of 76 to 100%. The pest or weed control at 100 ppm in data set [1] (setting [3]) lay within 76 to 100%.
Compound `Cc1ccc(C(=O)n2cc(F)c(/N=C/N(C)C)nc2=O)cc1` [Compound 9] gave a melting point of 128.8 to 130.5 °C. In addition, the pest or weed control at 100 ppm in data set [1] (setting [2]) fell in the range of 76 to 100%. The pest or weed control at 100 ppm in data set [1] (setting [3]) was 76 to 100%.
As to `Nc1nc(=O)n(C(=O)c2cc(F)cc(F)c2)cc1F` [Compound 13, 4-amino-1-(3,5-difluorobenzoyl)-5-fluoro-1H-pyrimidin-2-one], the pest or weed control at 100 ppm in data set [1] (setting [2]) and in data set [1] (setting [3]) was 76 to 100% throughout.
The compound `CN(C)/C=N/c1nc(=O)n(C(=O)c2cccs2)cc1F` [Compound 10] had a melting point of 154.8 to 156.5 °C. Besides, the pest or weed control at 100 ppm in data set [1] (setting [2]) lay within 76 to 100%. Moreover, the pest or weed control at 100 ppm in data set [1] (setting [3]) lay in the range of 76 to 100%.
For the compound `Nc1nc(=O)n(C(=O)c2ccc(F)c(F)c2)cc1F` [Compound 20], the melting point fell in the range of 150 to 152 °C. For the same compound, the pest or weed control at 100 ppm in data set [1] (setting [2]) lay within 76 to 100%. For the same compound, in data set [1] (setting [3]), the pest or weed control at 100 ppm lay in the range of 76 to 100%.
For `CC(=O)Nc1nc(=O)n(C(=O)c2ccc(C)cc2)cc1F` [Compound 21, N-(5-fluoro-1-(4-methylbenzoyl)-2-oxo-1,2-dihydropyrimidin-4-yl)acetamide], the melting point lay in the range of 146.9 to 148.2 °C.
Take `Nc1nc(=O)n(C(=O)c2ccsc2)cc1F` [Compound 19]: the melting point lay within 223.1 to 225.2 °C. Further, in data set [1] (setting [2]), the pest or weed control at 100 ppm was 76 to 100%. Moreover, the pest or weed control at 100 ppm in data set [1] (setting [3]) was in the range of 76 to 100%.
